The values below come from patent US20030050249A1, “Complexes of alpha-6 integrin subunits with small peptides and methods for treating indications resulting from modulation of integrin-mediated responses by altering signal transduction” (priority 2000, published 2003).

Ends that are not written are not given here. Peptide text beside a SMILES is read from it. * marks the point of attachment. For = O=C*

A short description of data set [1]: HK-X administration to normal mice.
For data set [2] the following is noted: mouse, in vivo.
For a further data set, the system named is inflamed lung. The following applies: mouse, in vivo.
The test system of data set [3] is normal human peripheral blood mononuclear cells. The data set can be described thus: Effects of HK-X on cultures of human peripheral blood mononuclear cells with and without Con A (cell cycle, viability, apoptosis). It counts as cell-based. The following applies: versus vehicle. The method, then:
The effects of addition of HK-X (as compared to a control of vehicle without peptide) to cultures of normal human peripheral blood mononuclear cells with and without the plant lectin, Con A, were also evaluated. […] However, HK-X induced apoptosis in a significant population of cells (˜30%) stimulated with Con A as determined by the presence of a sub G0/G1 population in the DNA profile. In cultures where the cells were not stimulated to enter the cell cycle (without Con A), the levels of sub G0/G1 were similar in HK-X treated and control cultures (<7%).

The subject of data set [4] is rat peritoneal mast cells. The data set can be described thus: Binding of FITC-HK-X to rat peritoneal mast cells. As to conditions: freshly isolated mast cells, FIG. 3. The method, then: Rat peritoneal mast cells were isolated by infusion of 35 ml of Tyrode's Solution into the peritoneal cavity of anesthetized rats. The rats were then sacrificed by injection of an overdose of anesthetic. The peritoneal cells were harvested, placed into 15 ml centrifuge tubes. The cells were pelleted by centrifugation at 250×g for 10 min at room temperature.
Other cell types were also tested for the ability to bind FITC labeled HK-X on their cell surface.

Another data set has as its target T1, FPR (Homo sapiens, UniProt P21462).
T1 sequence (P21462 1-350): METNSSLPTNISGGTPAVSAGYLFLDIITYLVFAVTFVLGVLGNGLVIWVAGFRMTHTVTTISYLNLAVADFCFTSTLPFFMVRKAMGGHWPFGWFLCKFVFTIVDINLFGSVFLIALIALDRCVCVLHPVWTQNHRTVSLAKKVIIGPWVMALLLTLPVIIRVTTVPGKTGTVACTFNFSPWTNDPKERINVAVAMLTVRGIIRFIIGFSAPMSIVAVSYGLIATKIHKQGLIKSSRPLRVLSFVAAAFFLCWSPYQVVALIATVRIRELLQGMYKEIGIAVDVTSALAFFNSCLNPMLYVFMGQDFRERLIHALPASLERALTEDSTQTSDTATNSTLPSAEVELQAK
As to conditions: compared with FMLP; cited from earlier work.

Procedure for inflamed lung: In this model HK-X was administered intranasally for up to 3 months.

Regarding `CSCC[C@H](NC=O)C(=O)N[C@@H](CC(C)C)C(=O)N[C@@H](Cc1ccccc1)C(=O)N[C@@H](Cc1ccccc1)C(=O)O` [HK-X, f-Met-Leu-Phe-Phe] (For-MLFF-OH), in data set [1] (10 μg to 1000 μg per adult mouse), the “distribution or numbers of nucleated cells of the peripheral blood” value is given as “no alterations”. Further, the “numbers of antibody forming cells (PFC), IgM and IgG” value in data set [1] (mice immunized with sheep red cells, HK-X prior to and after immunization) is on record as “no alteration”. Moreover, in data set [1] (normal mice), the “Liver and kidney function” value is “unaffected”; the “production of required cytokines” value was “did not down regulate”; the “proliferation and differentiation of hematopoietic precursors of neutrophils, basophils, monocytes and lymphocytes” value is “did not negatively affect”. The toxicity result in data set [2] is reported as “no discernable toxicity”. Moreover, in the data set with inflamed lung, the “pathological changes in the alveoli, bronchi or vessels” value is “no pathological changes”. Further, the cell viability result in data set [3] was “did not effect cell viability”.

For the compound “FITC-HK-X: fluoresceinated HK-X (f-Met-Leu-Phe-Phe) (MLFF; not fully specified; also: FITC label, site not given here)”, the “numbers of FITC-HK-X bound” value in data set [4] is given as “roughly equivalent to that of human eosinophils”.

In the case of “Met-Met-Trp-Leu-Leu (MMWLL; printed: Met-Met-Trp-Leu-Leu)”, the neutrophil function activity entry with FPR is “comparable in neutrophil function activity to FMLP”.
